From US7968577B2 (Bristol-Myers Squibb Company, priority 2006, dated 2011)

target: T1, human glucocorticoid receptor (Homo sapiens, UniProt P04150); assay: Glucocorticoid Receptor Binding Assay (I), fluorescence polarization competitor kit (Fluormone GS Red); settings: GR Binding Assay (I)
T1 construct: purified human recombinant full-length glucocorticoid receptor; purchased Invitrogen Part #2893
T1 sequence (P04150 1-777): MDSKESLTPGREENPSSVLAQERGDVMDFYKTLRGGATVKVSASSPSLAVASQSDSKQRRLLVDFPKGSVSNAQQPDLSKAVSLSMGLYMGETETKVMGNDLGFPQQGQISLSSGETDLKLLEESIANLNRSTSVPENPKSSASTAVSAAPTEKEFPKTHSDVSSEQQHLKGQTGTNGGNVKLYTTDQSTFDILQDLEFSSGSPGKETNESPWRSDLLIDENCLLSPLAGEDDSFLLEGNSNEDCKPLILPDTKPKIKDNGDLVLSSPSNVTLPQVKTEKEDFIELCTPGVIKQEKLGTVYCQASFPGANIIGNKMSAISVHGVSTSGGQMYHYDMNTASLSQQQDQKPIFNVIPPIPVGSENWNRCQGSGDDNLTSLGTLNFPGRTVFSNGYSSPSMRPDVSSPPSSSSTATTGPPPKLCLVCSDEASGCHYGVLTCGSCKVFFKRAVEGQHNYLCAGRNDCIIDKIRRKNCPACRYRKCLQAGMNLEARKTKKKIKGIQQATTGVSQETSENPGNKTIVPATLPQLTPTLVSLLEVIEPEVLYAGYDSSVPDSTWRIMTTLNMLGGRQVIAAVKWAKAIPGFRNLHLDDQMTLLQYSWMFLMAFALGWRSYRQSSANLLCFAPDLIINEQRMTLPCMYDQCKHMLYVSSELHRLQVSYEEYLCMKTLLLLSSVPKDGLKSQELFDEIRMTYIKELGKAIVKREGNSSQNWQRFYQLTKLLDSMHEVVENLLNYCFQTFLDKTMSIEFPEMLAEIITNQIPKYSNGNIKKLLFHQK
Description: Glucocorticoid Receptor Binding Assay (I)^a
In order to assess the affinity of test compounds for the human glucocorticoid receptor, a commercially available kit was used (Glucocorticoid Receptor Competitor Assay Kit, Invitrogen Part #2893). Briefly, purified human recombinant full-length glucocorticoid receptor (2 nM) was mixed with fluorescently labeled glucocorticoid (1 nM Fluormone GS Red) in the presence or absence of test compound. After two hour incubation at room temperature in the dark, the fluorescence polarization (FP) of the samples was measured. […] Test compounds were analyzed in the concentration range from 8.5 E-05 μM to 5 μM.

Question: For `CC(C)(C(=O)Nc1nccs1)C(c1ccc(N2CCOCC2)cc1)c1cccc(F)c1` (single isomer, unassigned) [Example 254, 3-(3-fluorophenyl)-2,2-dimethyl-3-(4-(4-morpholinyl)phenyl)-N-1,3-thiazol-2-ylpropanamide], which Ki is on record?
Answer: Its Ki is 104 nM.

Question: Which Ki does the source give for `CC(C)(C(=O)Nc1nncs1)C(c1ccc(N2CCOCC2)cc1)c1cccc(F)c1` (single isomer, unassigned) [Example 256, 3-(3-fluorophenyl)-2,2-dimethyl-3-(4-(4-morpholinyl)phenyl)-N-1,3,4-thiadiazol-2-ylpropanamide] here?
Answer: The Ki was 125 nM.

Question: How did the Ki turn out when `Cc1cccc(C(c2ccc(N3CCOCC3)cc2)C(C)(C)C(=O)Nc2nncs2)c1` (centres unmarked) [Example 235, 2,2-dimethyl-3-(3-methylphenyl)-3-(4-(4-morpholinyl)phenyl)-N-1,3,4-thiadiazol-2-ylpropanamide] was run?
Answer: The Ki was 5.19 nM.

Question: How did the Ki turn out when `CC(C)(C(=O)Nc1nccs1)[C@H](c1ccccc1)c1ccc(O)cc1` [Example 326, (3R)-3-(4-hydroxyphenyl)-2,2-dimethyl-3-phenyl-N-1,3-thiazol-2-ylpropanamide] was run?
Answer: Its Ki is 18.7 nM.

Question: How did the Ki turn out when `COc1ccc(-c2ccc(C(c3ccccc3)C(C)(C)C(=O)Nc3nncs3)cc2)cc1F` (centres unmarked) [Example 420, 3-(3′-fluoro-4′-methoxy-4-biphenylyl)-2,2-dimethyl-3-phenyl-N-1,3,4-thiadiazol-2-ylpropanamide] was run?
Answer: The Ki was 13.3 nM.

Question: With `CC(C)(C(=O)Nc1nncs1)C(c1ccccc1)c1ccc(-c2ccc(CO)cc2)cc1` (centres unmarked) [Example 421, 3-(4′-(hydroxymethyl)-4-biphenylyl)-2,2-dimethyl-3-phenyl-N-1,3,4-thiadiazol-2-ylpropanamide] as the compound, how does the Ki read?
Answer: Its Ki is 5.72 nM.

Question: How did the Ki turn out when `CN1CCN(C(=O)c2ccc(-c3ccc(C(c4ccccc4)C(C)(C)C(=O)Nc4nncs4)cc3)cc2)CC1` (centres unmarked) [Example 426, 2,2-dimethyl-3-(4′-((4-methyl-1-piperazinyl)carbonyl)-4-biphenylyl)-3-phenyl-N-1,3,4-thiadiazol-2-ylpropanamide] was run?
Answer: Its Ki is 3.68 nM.

Question: How did the Ki turn out when `CC(C)CC(c1ccc(-c2ccc(C(=O)N3CCOCC3)cc2)cc1)C(C)(C)C(=O)Nc1nncs1` (centres unmarked) [Example 427, 2,2,5-trimethyl-3-(4′-(4-morpholinylcarbonyl)-4-biphenylyl)-N-1,3,4-thiadiazol-2-ylhexanamide] was run?
Answer: The Ki was 9.28 nM.

Question: For `COCc1ccc(-c2ccc(C(CC(C)C)C(C)(C)C(=O)Nc3nncs3)cc2)cc1` (centres unmarked) [Example 428, 3-(4′-(methoxymethyl)-4-biphenylyl)-2,2,5-trimethyl-N-1,3,4-thiadiazol-2-ylhexanamide], which Ki is on record?
Answer: The Ki was 17.9 nM.

Question: How did the Ki turn out when `CC(C)CC(c1ccc(-c2ccc(C(=O)NC3CC3)cc2)cc1)C(C)(C)C(=O)Nc1nncs1` (centres unmarked) [Example 429, N-cyclopropyl-4′-(1-(1,1-dimethyl-2-oxo-2-(1,3,4-thiadiazol-2-ylamino)ethyl)-3-methylbutyl)-4-biphenylcarboxamide] was run?
Answer: The Ki was 31 nM.

Question: Which Ki does the source give for `CCOc1ccc(-c2ccc(C(CC(C)C)C(C)(C)C(=O)Nc3nncs3)cc2)cc1` (centres unmarked) [Example 430, 3-(4′-ethoxy-4-biphenylyl)-2,2,5-trimethyl-N-1,3,4-thiadiazol-2-ylhexanamide] here?
Answer: The Ki was 4.87 nM.

Question: How did the Ki turn out when `CC(C)CC(c1ccc(-c2ccccc2)cc1)C(C)(C)C(=O)Nc1nncs1` (centres unmarked) [Example 431, 3-(4-biphenylyl)-2,2,5-trimethyl-N-1,3,4-thiadiazol-2-ylhexanamide] was run?
Answer: The Ki was 52.8 nM.

Question: With `CC(C)CC(c1ccc(-c2ccc(Cl)cc2)cc1)C(C)(C)C(=O)Nc1nncs1` (centres unmarked) [Example 432, 3-(4′-chloro-4-biphenylyl)-2,2,5-trimethyl-N-1,3,4-thiadiazol-2-ylhexanamide] as the compound, how does the Ki read?
Answer: The Ki was 184 nM.

Question: `CC(C)CC(c1ccc(-c2ccc(-c3ccccc3)cc2)cc1)C(C)(C)C(=O)Nc1nncs1` (centres unmarked) [Example 433, 2,2,5-trimethyl-3-(1,1′:4′,1″-terphenyl-4-yl)-N-1,3,4-thiadiazol-2-ylhexanamide] was tested. Which Ki did it give?
Answer: The Ki was 12.4 nM.

Question: `CC(C)CC(c1ccc(-c2cccc(Cl)c2)cc1)C(C)(C)C(=O)Nc1nncs1` (centres unmarked) [Example 434, 3-(3′-chloro-4-biphenylyl)-2,2,5-trimethyl-N-1,3,4-thiadiazol-2-ylhexanamide] was tested. Which Ki did it give?
Answer: Its Ki is 19.4 nM.

Question: `COc1ccccc1-c1ccc(C(CC(C)C)C(C)(C)C(=O)Nc2nncs2)cc1` (centres unmarked) [Example 435, 3-(2′-methoxy-4-biphenylyl)-2,2,5-trimethyl-N-1,3,4-thiadiazol-2-ylhexanamide] was tested. Which Ki did it give?
Answer: The Ki was 10.7 nM.

Question: How did the Ki turn out when `CC(C)CC(c1ccc(-c2ccc(O)cc2)cc1)C(C)(C)C(=O)Nc1nncs1` (centres unmarked) [Example 436, 3-(4′-hydroxy-4-biphenylyl)-2,2,5-trimethyl-N-1,3,4-thiadiazol-2-ylhexanamide] was run?
Answer: Its Ki is 105 nM.

Question: For `CC(C)CC(c1ccc(-c2ccc(OC(F)(F)F)cc2)cc1)C(C)(C)C(=O)Nc1nncs1` (centres unmarked) [Example 437, 2,2,5-trimethyl-N-1,3,4-thiadiazol-2-yl-3-(4′-(trifluoromethoxy)-4-biphenylyl)hexanamide], which Ki is on record?
Answer: The Ki was 5.33 nM.

Question: `CC(=O)c1ccc(-c2ccc(C(CC(C)C)C(C)(C)C(=O)Nc3nncs3)cc2)cc1` (centres unmarked) [Example 438, 3-(4′-acetyl-4-biphenylyl)-2,2,5-trimethyl-N-1,3,4-thiadiazol-2-ylhexanamide] was tested. Which Ki did it give?
Answer: Its Ki is 12 nM.

Question: `CC(=O)c1cccc(-c2ccc(C(CC(C)C)C(C)(C)C(=O)Nc3nncs3)cc2)c1` (centres unmarked) [Example 439, 3-(3′-acetyl-4-biphenylyl)-2,2,5-trimethyl-N-1,3,4-thiadiazol-2-ylhexanamide] was tested. Which Ki did it give?
Answer: The Ki was 20.3 nM.

Question: How did the Ki turn out when `CC(=O)Nc1ccc(-c2ccc(C(CC(C)C)C(C)(C)C(=O)Nc3nncs3)cc2)cc1` (centres unmarked) [Example 440, 3-(4′-acetamido-4-biphenylyl)-2,2,5-trimethyl-N-1,3,4-thiadiazol-2-ylhexanamide] was run?
Answer: The Ki was 21.4 nM.

Question: Which Ki does the source give for `CC(C)CC(c1ccc(-c2ccc3c(c2)CCO3)cc1)C(C)(C)C(=O)Nc1nncs1` (centres unmarked) [Example 441, 3-(4-(2,3-dihydro-1-benzofuran-5-yl)phenyl)-2,2,5-trimethyl-N-1,3,4-thiadiazol-2-ylhexanamide] here?
Answer: Its Ki is 104 nM.

target: T2, human full-length glucocorticoid receptor (Homo sapiens, UniProt P04150); assay: Glucocorticoid Receptor Binding Assay (II), fluorescence polarization competitor kit (Fluormone GS1); settings: GR Binding Assay (II)
T2 construct: recombinantly expressed human full-length glucocorticoid receptor; purchased PanVera Co., Madison, Wis; P2816
T2 sequence (P04150 1-777): T1 sequence (P04150 1-777)
Procedure, shortened: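 Cell lysate with recombinant receptor incubated with 1 nM Fluormone GS1 tracer, with or without test compound, for one hour at room temperature. Binding read as displacement by fluorescence polarization.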

Question: With `CC(C)(C(=O)Nc1nccs1)C(c1ccc(N2CCOCC2)cc1)c1cccc(F)c1` (single isomer, unassigned) [Example 254, 3-(3-fluorophenyl)-2,2-dimethyl-3-(4-(4-morpholinyl)phenyl)-N-1,3-thiazol-2-ylpropanamide] as the compound, how does the Ki read?
Answer: The Ki was 25.8 nM.

Question: With `CC(C)(C(=O)Nc1nncs1)C(c1ccc(N2CCOCC2)cc1)c1cccc(F)c1` (single isomer, unassigned) [Example 256, 3-(3-fluorophenyl)-2,2-dimethyl-3-(4-(4-morpholinyl)phenyl)-N-1,3,4-thiadiazol-2-ylpropanamide] as the compound, how does the Ki read?
Answer: The Ki was 121 nM.

Question: For `Cc1cccc(C(c2ccc(N3CCOCC3)cc2)C(C)(C)C(=O)Nc2nncs2)c1` (centres unmarked) [Example 235, 2,2-dimethyl-3-(3-methylphenyl)-3-(4-(4-morpholinyl)phenyl)-N-1,3,4-thiadiazol-2-ylpropanamide], which Ki is on record?
Answer: The Ki was 13.6 nM.

Question: Which Ki does the source give for `CC(C)(C(=O)Nc1nccs1)[C@H](c1ccccc1)c1ccc(O)cc1` [Example 326, (3R)-3-(4-hydroxyphenyl)-2,2-dimethyl-3-phenyl-N-1,3-thiazol-2-ylpropanamide] here?
Answer: The Ki was 12.9 nM.
